The subject of one test is MDA-MB-231. Kind of test: Antiproliferative activity against human MDA-MB-231 cells assessed as cell growth inhibition measured after 48 hrs by WST-1 assay. Format: functional, cell-based. The note with it: MDA-MB-231, 48 h.
The subject of the next test is P815. Kind of test: Cytotoxicity against mouse P815 cells assessed as cell growth inhibition measured after 48 hrs by MTT assay. Format: functional, cell-based. The note with it: P815, 48 h.
Test [1] deals with MCF7. Kind of test: Cytotoxicity against human MCF7 cells assessed as cell growth inhibition measured after 48 hrs by MTT assay. The following applies: MCF7, 48 h. Format: functional, cell-based.
The next test relates to MDA-MB-468. The test can be described thus: Cytotoxicity against human MDA-MB-468 cells assessed as cell growth reduction measured after 48 hrs by MTT assay. Format: functional, cell-based. The note with it: MDA-MB-468, 48 h.
The target in test [2] is T1, Poly [ADP-ribose] polymerase 1 (Homo sapiens, UniProt P09874). Kind of test: Displacement of [125I]KX1 from PARP1 in human OVCAR-8 cells incubated for 1 hr by wizard gamma counter analysis. Format: cell-based.
For the next test, the system named is A549. Kind of test: Antiproliferative activity against human A549 cells assessed as cell growth inhibition measured after 48 hrs by MTT assay. The test is classed as functional, cell-based. The following applies: A549, 48 h.
The subject of test [3] is HepG2. The test can be described thus: Cytotoxicity against human HepG2 cells assessed as cell growth inhibition by colorimetric method. Format: functional, cell-based.
In test [4] the target is Hepatocyte growth factor receptor (Homo sapiens, UniProt P08581). Kind of test: Inhibition of human recombinant c-MET in presence of ATP by HTRF assay.
Test [5] concerns HCT-116. Kind of test: Cytotoxicity against human HCT-116 cells assessed as cell growth inhibition measured after 48 hrs by SRB assay. The following applies: HCT-116, 48 h. The test is classed as functional, cell-based.
Test [6] is described as follows: In vivo inhibition of VEGFR2 in Swiss albino mouse implanted with mouse Ehrlich cells incubated for 24 hrs by immunohistochemical staining based analysis relative to control. Format: functional.
In test [7] the target is Vascular endothelial growth factor receptor 3 (Homo sapiens) (UniProt P35916). The test can be described thus: Inhibition of VEGFR3 (unknown origin) at 10 uM by ELISA relative to control.
A further test has as its system PC-3. Kind of test: Cytotoxicity against human PC-3 cells assessed as cell growth inhibition by MTT assay. The test is classed as functional, cell-based.
Test [8] concerns HepG2. The test can be described thus: Cytotoxicity against human HepG2 cells assessed as cell growth inhibition after 48 hrs by SRB assay. The note with it: HepG2, 48 h. Format: functional, cell-based.
The target in test [9] is T1, Poly [ADP-ribose] polymerase 1. Kind of test: Inhibition of PARP1 (unknown origin) by colorimetric assay.
In another test the test system is MCF-12A. The test can be described thus: Antiproliferative activity against human MCF-12A cells assessed as cell growth inhibition. Format: functional, cell-based.
Test [10] is described as follows: Inhibition of tyrosine kinase (unknown origin). On the set-up: species or system Homo sapiens.
Test [11] relates to MCF7. The test can be described thus: Antiproliferative activity against human MCF7 cells assessed as cell growth inhibition. Format: functional, cell-based.
Test [12] concerns HCT-116. The test can be described thus: Cytotoxicity against human HCT-116 cells assessed as cell growth inhibition measured after 72 hrs by MTT assay. Format: functional, cell-based. The following applies: HCT-116, 72 h.
In test [13] the target is T2, Vascular endothelial growth factor receptor 2 (Homo sapiens, UniProt P35968). The test can be described thus: Inhibition of VEGFR2 (unknown origin) using poly (Glu,Tyr) 4:1 as substrate measured after 5 mins in presence of ATP by ELISA method.
The test system of test [14] is MCF7. The test can be described thus: Cytotoxicity against human MCF7 cells assessed as cell growth inhibition measured after 72 hrs by MTT assay. The test is classed as functional, cell-based. The note with it: MCF7, 72 h.
The target of test [15] is T2, Vascular endothelial growth factor receptor 2. The test can be described thus: Binding affinity to VEGFR2 (unknown origin) at 10 uM using ULight-4E-BP1 peptide as substrate incubated for 1 hr in presence of ATP by fluorescence based analysis relative to control.
Test [16] has as its system Hep 3B2. Kind of test: Antiproliferative activity against human Hep3B assessed as cell growth inhibition measured after 72 hrs by CCK-8 assay. Format: functional, cell-based.
The subject of test [17] is Hep 3B2. Kind of test: Induction of apoptosis in human Hep3B cells assessed as early apoptotic cells incubated for 24 hrs by annexin-V/FITC and propidium iodide staining based flow cytometry analysis. Format: functional.
In test [18] the test system is MCF7. Kind of test: Induction of apoptosis in human MCF7 cells assessed as early apoptotic cells incubated for 24 hrs by annexin-V/FITC and propidium iodide staining based flow cytometry analysis. Format: functional.
Test [19] deals with MCF7. Kind of test: Antiproliferative activity against human MCF7 assessed as cell growth inhibition measured after 72 hrs by CCK-8 assay. Format: functional, cell-based. The following applies: MCF7, 72 h.

pIC50: −log10 of the molar value. Converted amounts (≈) assume the structure as drawn.

T1 sequence (P09874 whole entry): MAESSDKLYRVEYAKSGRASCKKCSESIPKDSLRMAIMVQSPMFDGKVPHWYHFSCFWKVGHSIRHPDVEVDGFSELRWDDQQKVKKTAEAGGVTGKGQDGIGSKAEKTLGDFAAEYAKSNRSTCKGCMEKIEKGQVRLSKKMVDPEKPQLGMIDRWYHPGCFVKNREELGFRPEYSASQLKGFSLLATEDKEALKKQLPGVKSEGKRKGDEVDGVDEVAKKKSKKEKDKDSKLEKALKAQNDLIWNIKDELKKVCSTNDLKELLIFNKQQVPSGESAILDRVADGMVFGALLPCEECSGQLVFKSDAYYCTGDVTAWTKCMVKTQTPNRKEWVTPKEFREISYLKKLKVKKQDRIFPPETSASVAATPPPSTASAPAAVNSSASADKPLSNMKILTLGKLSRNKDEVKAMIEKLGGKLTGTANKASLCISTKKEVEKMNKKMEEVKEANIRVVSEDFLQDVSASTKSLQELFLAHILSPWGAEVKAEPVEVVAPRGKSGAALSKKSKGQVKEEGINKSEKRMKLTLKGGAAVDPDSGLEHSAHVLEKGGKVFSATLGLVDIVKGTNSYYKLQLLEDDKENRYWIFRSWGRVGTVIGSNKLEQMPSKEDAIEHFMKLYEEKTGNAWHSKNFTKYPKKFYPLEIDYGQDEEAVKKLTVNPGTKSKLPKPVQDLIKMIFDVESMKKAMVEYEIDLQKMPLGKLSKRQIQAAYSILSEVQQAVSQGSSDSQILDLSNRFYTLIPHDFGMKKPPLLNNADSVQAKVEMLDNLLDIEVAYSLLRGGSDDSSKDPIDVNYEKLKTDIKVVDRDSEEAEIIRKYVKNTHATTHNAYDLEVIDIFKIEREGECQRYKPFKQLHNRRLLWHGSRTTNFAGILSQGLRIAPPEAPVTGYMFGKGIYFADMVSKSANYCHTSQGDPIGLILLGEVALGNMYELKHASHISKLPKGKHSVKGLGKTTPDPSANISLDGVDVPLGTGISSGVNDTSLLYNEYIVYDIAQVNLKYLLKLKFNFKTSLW
T2 sequence (P35968 whole entry): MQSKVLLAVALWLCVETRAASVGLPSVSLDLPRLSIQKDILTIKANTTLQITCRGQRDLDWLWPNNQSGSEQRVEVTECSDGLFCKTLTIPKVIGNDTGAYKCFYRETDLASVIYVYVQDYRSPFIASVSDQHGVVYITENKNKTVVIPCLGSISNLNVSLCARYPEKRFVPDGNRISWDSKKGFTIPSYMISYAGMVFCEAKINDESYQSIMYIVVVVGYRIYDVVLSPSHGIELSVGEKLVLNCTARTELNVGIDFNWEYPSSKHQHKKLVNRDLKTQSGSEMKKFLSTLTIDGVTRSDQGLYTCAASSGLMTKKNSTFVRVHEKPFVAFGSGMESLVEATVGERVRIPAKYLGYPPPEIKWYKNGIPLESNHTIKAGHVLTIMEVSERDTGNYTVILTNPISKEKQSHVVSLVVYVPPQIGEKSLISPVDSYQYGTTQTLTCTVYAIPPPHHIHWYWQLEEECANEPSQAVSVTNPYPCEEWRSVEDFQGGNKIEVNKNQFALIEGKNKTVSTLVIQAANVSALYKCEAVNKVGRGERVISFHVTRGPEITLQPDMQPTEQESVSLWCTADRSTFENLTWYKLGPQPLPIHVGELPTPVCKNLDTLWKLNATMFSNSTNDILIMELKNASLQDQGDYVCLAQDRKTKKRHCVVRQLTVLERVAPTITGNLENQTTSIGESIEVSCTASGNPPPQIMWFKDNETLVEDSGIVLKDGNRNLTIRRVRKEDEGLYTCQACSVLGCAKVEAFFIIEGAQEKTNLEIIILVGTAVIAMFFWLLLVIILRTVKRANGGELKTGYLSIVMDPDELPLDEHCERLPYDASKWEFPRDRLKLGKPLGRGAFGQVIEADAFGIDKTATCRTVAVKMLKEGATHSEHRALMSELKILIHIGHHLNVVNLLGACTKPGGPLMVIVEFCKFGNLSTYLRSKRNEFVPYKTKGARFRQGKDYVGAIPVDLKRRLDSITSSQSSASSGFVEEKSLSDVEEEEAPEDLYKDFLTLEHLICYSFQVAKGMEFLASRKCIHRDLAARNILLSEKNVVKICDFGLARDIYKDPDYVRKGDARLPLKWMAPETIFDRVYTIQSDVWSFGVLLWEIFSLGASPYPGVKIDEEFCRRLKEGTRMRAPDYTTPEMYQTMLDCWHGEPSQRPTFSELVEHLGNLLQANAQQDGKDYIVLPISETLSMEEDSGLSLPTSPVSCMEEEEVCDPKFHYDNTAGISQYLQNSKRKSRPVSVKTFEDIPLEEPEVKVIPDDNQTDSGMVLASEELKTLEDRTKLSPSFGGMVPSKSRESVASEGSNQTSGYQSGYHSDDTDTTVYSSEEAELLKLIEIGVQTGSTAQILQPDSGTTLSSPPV
Chain of Vascular endothelial growth factor receptor 3 (Homo sapiens) (P35916 whole entry): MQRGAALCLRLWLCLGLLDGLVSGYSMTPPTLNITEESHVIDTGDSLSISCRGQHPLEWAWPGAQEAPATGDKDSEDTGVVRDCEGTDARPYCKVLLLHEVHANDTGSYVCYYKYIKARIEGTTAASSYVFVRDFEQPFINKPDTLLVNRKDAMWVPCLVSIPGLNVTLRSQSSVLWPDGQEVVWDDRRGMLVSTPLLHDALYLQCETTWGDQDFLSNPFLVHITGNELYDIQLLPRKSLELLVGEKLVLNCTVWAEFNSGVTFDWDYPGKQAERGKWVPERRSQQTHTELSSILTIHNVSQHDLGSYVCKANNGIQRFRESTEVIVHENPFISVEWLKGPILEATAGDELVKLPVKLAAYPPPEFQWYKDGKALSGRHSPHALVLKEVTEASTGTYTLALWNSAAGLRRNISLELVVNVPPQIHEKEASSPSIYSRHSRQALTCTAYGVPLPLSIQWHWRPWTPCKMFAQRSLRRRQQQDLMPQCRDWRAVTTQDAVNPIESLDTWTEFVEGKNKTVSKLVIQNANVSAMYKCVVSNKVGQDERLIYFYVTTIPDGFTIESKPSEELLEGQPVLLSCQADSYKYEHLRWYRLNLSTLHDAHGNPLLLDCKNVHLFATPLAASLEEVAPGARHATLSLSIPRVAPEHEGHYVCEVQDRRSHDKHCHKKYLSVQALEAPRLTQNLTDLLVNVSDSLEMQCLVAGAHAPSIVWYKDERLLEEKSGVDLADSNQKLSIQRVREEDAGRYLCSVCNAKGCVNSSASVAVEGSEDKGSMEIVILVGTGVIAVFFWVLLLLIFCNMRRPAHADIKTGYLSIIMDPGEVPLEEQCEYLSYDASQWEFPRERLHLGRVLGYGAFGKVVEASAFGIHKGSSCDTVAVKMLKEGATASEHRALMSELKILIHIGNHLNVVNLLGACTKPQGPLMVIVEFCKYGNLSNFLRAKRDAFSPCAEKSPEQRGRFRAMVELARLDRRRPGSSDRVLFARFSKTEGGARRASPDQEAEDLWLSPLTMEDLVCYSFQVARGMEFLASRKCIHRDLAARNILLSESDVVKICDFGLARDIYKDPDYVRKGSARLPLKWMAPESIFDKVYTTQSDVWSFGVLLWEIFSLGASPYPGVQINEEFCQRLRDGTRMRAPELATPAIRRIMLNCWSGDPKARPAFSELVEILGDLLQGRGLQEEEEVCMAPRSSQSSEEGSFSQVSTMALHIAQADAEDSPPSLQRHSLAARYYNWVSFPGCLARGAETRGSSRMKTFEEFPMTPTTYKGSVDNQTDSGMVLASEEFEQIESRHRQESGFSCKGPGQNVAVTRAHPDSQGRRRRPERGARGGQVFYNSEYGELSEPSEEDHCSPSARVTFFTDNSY
Chain of Hepatocyte growth factor receptor (P08581 whole entry): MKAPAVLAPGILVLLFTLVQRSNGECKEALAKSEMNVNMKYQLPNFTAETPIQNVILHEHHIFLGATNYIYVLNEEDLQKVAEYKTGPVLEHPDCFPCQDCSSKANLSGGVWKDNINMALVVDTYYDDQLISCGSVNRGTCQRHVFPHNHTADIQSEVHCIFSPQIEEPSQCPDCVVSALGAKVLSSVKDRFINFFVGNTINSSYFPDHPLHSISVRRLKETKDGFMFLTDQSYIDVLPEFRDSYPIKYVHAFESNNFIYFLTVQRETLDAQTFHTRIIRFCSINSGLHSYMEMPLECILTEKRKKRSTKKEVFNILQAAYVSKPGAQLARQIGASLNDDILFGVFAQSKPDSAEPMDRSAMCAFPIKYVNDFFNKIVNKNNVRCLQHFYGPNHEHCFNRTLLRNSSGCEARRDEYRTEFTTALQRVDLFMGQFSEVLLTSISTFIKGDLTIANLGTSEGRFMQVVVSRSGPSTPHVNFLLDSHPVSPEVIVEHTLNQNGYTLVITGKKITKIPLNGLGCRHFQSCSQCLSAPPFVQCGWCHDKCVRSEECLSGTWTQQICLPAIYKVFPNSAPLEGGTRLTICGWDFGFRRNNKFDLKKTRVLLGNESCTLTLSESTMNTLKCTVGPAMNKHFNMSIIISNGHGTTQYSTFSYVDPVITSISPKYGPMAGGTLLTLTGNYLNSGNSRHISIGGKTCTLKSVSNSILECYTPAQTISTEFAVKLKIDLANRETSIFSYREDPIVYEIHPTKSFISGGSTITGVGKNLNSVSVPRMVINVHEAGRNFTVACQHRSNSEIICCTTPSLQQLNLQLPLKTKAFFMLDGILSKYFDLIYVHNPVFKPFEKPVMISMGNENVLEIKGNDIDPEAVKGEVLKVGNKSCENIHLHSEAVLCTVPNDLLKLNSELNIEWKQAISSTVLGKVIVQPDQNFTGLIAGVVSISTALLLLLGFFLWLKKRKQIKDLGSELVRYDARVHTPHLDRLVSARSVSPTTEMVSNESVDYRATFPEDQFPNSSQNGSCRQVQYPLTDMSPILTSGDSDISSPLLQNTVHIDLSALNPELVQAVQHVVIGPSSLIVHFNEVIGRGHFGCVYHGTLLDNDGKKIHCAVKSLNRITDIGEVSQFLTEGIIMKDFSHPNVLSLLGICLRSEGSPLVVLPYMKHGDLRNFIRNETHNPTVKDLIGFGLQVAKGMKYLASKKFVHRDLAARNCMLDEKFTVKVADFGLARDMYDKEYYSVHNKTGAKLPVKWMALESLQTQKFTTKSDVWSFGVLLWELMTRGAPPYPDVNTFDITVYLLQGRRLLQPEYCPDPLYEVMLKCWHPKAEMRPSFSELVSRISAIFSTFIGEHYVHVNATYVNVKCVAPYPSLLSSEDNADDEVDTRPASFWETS

On to `O=C1Nc2ccc(F)cc2/C1=N/Nc1nnc(-c2ccccc2)c2ccccc12`, for which the pIC50 in the test on MDA-MB-231 was 4.92.

As to `Cc1n[nH]c(=O)cc1Cc1cc2ccccc2o1`, the figures for the pIC50 with P815 and in the test with MCF7 [1] were 4.46 and 4.84, respectively.

On to `Cc1n[nH]c(=O)cc1Cc1cc2cc(Cl)cc(Br)c2o1`, for which the pIC50 in the test with MDA-MB-468 was 5.51.

Consider `COC1CCN(C(=O)c2cc(Cc3n[nH]c(=O)c4ccccc34)ccc2F)CC1` [AZD2461], for which the pIC50 in test [2] was 8.55.

For the compound `COc1ccc2oc(Cc3cc(=O)[nH]nc3C)cc2c1`, the pIC50 is 4.46 with P815 and 4.84 in the test with MCF7 [1]. As to `COC1CN(C(=O)c2cc(Cc3n[nH]c(=O)c4ccccc34)ccc2F)C1`, the pIC50 in test [2] is 8.09.

As to `Cc1n[nH]c(=O)cc1Cc1cc2cc(Cl)ccc2o1`, the pIC50 in the test with MDA-MB-468 was 5.05. With `CNC(=O)c1cc(Oc2ccc(NC(=O)Nc3ccc(Cl)c(C(F)(F)F)c3)cc2)ccn1` [SORAFENIB], the pIC50 in the test on A549 was 5.90. With `CCOC(=O)/C(C#N)=N/Nc1ccc(Nc2nnc(-c3ccc(C)c(C)c3)cc2-c2c(-c3ccccc3)[nH]c3ccccc23)cc1`, the IC50 with HepG2 [3] came to 3.1 µg/mL (≈ 5.12 µM).

With `Cn1cc(-c2ccc(=O)n(CC3CN(c4ncc(OCC5CCNCC5)cn4)CCO3)n2)cn1` (configuration not stated), the pIC50 in test [4] is 7.72. As for `C=CCNC(=S)Nc1cccc(Nc2ccc(Nc3ccc(S(=O)(=O)NC(=N)N)cc3)nn2)c1`, the pIC50 in the test on HCT-116 [5] was 4.52. Also, in [6], the “inhibition (INH)” value came to 40%. Further, in test [7], the inhibition amounted to 89.6%. Take `Sc1nnc(-c2ccc(Oc3ccccc3)cc2)c2ccccc12`: in the test on PC-3, the IC50 was determined as 9.22 µg/mL (≈ 27.9 µM). Consider `O=C(Cn1nc(Cc2ccccc2)c2ccccc2c1=O)NNC(=S)Nc1ccccc1`, for which the IC50 in the test on HepG2 [8] worked out at 7.09 µg/mL (≈ 16 µM). As to `O=C1Nc2ccccc2/C1=N/Nc1nnc(-c2ccc(Cl)cc2)c2ccccc12`, in the test with MDA-MB-231, the pIC50 is 4.92. `O=C(c1ccc(Cc2n[nH]c(=O)c3cccnc23)cc1)N1CCCC1` showed a pIC50 in test [9] of 7.43. `Cc1cccc(NC(=S)NNC(=O)c2nnc3ccc(C)cc3c2N)c1`: the negative-log IC50 (pIC50) was 4.31 in the test on MCF-12A, 6.26 in [10] and 6.74 with MCF7 [11]. Regarding `COc1cccc(NC(=O)Cc2ccc(-c3nn4c(C)nnc4c4ccccc34)cc2)c1`, the IC50 in the test on HCT-116 [12] was 57.4 µg/mL. Regarding `Cc1n[nH]c(=S)cc1Cc1cc2cc(Cl)ccc2o1`, the pIC50 in the test with MDA-MB-468 is 4.94.

Take `O=C(NNc1nn2cnnc2c2ccccc12)NC1CCCCC1`: the pIC50 in test [13] is 6.96; in the test with MCF7 [14], 5.06; in the test with HCT-116 [12] it was 5.22. As to `O=C(Nc1ccc(Cl)c(C(F)(F)F)c1)Nc1nnc2ccc(N3CCOCC3)nn12`, the Activity in test [15] is 3%.

As for `CCCOc1ccc2oc(Cc3cc(=O)[nH]nc3C)cc2c1`, the pIC50 in the test on P815 was 4.46; in the test with MCF7 [1], 4.84. As to `CCc1ccc2oc(Cc3cc(=O)[nH]nc3C)cc2c1`, the values for the pIC50 in the test on P815 and in the test with MCF7 [1] were 4.46 and 4.84, respectively.

On to `O=C(Nc1ccc(Cl)c(Cl)c1)Nc1nnc2ccc(Cl)nn12`, for which, in test [15], the Activity was determined as 3%. With `Cc1ccc2oc(Cc3cc(=O)[nH]nc3C)cc2c1`, the figures for the pIC50 in the test on P815 and with MCF7 [1] were 4.46 and 4.84, respectively. Regarding `C=CC[Se]c1ccc(S(=O)(=O)CCC)nn1`, the pIC50 with Hep 3B2 [16] is 4.51; in the test on MCF7 [19], 4.47. Also, the Activity in the test on Hep 3B2 [17] is listed as 5.46%; in the test on MCF7 [18], 9.28%. Take `N=C(N)NS(=O)(=O)c1ccc(Nc2ccc(Nc3cccc(NC(=O)CCCl)c3)nn2)cc1`: the pIC50 in the test on HCT-116 [5] was 4.41. Moreover, the “inhibition (INH)” value in test [6] worked out at 10%. Besides, the inhibition in test [7] worked out at 89.6%.

Source of the values: ChEMBL document CHEMBL5104091, “Pyridazine as a privileged structure: An updated review on anticancer activity of pyridazine containing bioactive molecules” (Eur J Med Chem, 2021).
